Assay [1] deals with HT29 tumor cell / antibody interaction. The assay is described as follows: Competition ELISA of cells, inhibition of antibody interaction with HT29 tumor cells. The format is cell-based, human. The settings on record: for Inhibitory effect relative to BzlαTFD, IgM mediated interaction: times less inhibitory effect than BzlαTFD; for Inhibitory effect, IgM mediated interaction: in words. How it is done:
Level of antibodies against epithelial tumor cells was determined using lines HT29, MCF7, and T47D. Tumor cells were cultured to sub-comfluence in media recommended by ATCC, and harvested by treatment with trypsin. They were adsorbed to multi-well plates, fixed with cold methanol for […] and saturated with PBS-T for 1 hour at room temperature. ELISA of cells was carried out by incubating serial dilutions of mouse sera against the different tumor lines for 2 hours at room temperature in PBS, and then was washed 4 times with PBS-T. The adhered antigen-antibody complex was detected with a 1/1000 dilution of anti-IgG goat antibody or mouse IgM conjugated to a peroxidase in PBS-T, incubated for 1 hour at room temperature, and washed […] PBS-T. Color reaction was developed as described for ELA. Steps for competition ELISA of cells were the same as for ELISA of cells, except in that the optimum anti-sera dilution was pre-incubated with several antigens related to carbohydrates for 1 hour at room temperature prior to the addition to the plate wells.
Background: In an ELISA, binding on a coated surface is turned into a signal by an enzyme label.

The subject of assay [2] is T-MUC1 antigen / IgG, IgM antibodies interaction. Briefly: Competition ELISA, inhibition of antibody interaction with T-MUC1 antigen. The note with it: antisera from BzlαTFD-Lys5-KLHs immunization. The format is binding, mice. How it is done:
(§1) Target antigens (10 μg/ml) were adhered to multi-well plates of polystirene in saline phosphate buffer (PBS; 10 mM sodium phosphate, pH 7.2 and 150 mM NaCl) overnight at 4° C. Glycolipids were diluted in methanol and dried for 1 hour at 60° C. After covering the wells with the antigens, these were saturated with PBS-1% BSA-0.05% Tween 20 for 1 hour at 37° C. Serial dilutions of antiserum were incubates with the antigen for 2 hours at room temperature, and then washed 5 times with PBS. The adhered antigen-antibody complex was detected with a 1/1000 dilution of anti-IgG goat antibody or mouse IgM conjugated with peroxydase in PBS-0.05% Tween 20 (PBS-T), incubates at room temperature for 1 hour, and washed 5 times with PBS. Color reaction was developed as described for ELA.
(§2) The three antibodies showing highest anti-TFD and anti-antigen T levels were analyzed by competition ELISA, and results were averaged. Optimum antiserum dilutions with an optical density of 1.0 against TFD-BSA and T-MUC1 (10 μg/ml) as blanc antigen were determined in preliminary experiments. Competition ELISA stages were equal to those in ELISA, except in that optimal antiserum dilution was pre-incubated with several related antigens in carbohydrates for 1 hour at room temperature before being added to the wells. Minimum concentration of carbohydrates required for 50% inhibition (ID50) of antigen-antibody interaction is a more specific parameter.

Assay [3] has as its system TFD-BSA antigen / IgG, IgM antibodies interaction. The assay is described as follows: Competition ELISA, inhibition of antibody interaction with TFD-BSA antigen. The format is binding, mice. The note with it: for IC50: antisera from BzlαTFD-Lys5-KLHs immunization; for Inhibitory effect in the interaction of TFD-BSA/antigen T-IgG/IgM antibodies: competition ELISA, TFD-BSA and antigen T, in words. The method, then: as §1, §2

Where [4] appears, read: Homo sapiens, HT-29, HT29, IgG, read-out: Concentration requested to produce 50% inhibition (IC50), antibodies with HT29 tumor cell interaction, IgG.
[5] abbreviates: Homo sapiens, HT-29, HT29, IgM, read-out: Concentration requested to produce 50% inhibition (IC50), antibodies with HT29 tumor cell interaction, IgM.
[6] abbreviates: IgG, read-out: Concentration required to produce 50% inhibition (IC50), T-MUC1 antigen, IgG.
The mark [7] stands for this setting: IgM, read-out: Concentration required to produce 50% inhibition (IC50), T-MUC1 antigen, IgM.
Setting [8] is: IgG, read-out: Concentration required to produce 50% inhibition (IC50), TFD-BSA antigen, IgG.
[9] abbreviates: IgM, read-out: Concentration required to produce 50% inhibition (IC50), TFD-BSA antigen, IgM.
[10] abbreviates: HT29, IgM, read-out: Concentration requested to produce 50% inhibition (IC50), antibodies with HT29 tumor cell interaction, IgM.
Setting [11] is: HT29, IgG, read-out: Concentration requested to produce 50% inhibition (IC50), antibodies with HT29 tumor cell interaction, IgG.

Read-outs that look alike come from different tables or passages of the source.

`CC(=O)NC1C(OCc2ccccc2)OC(CO)C(O)C1O` (centres unmarked) [BzlαGalNAc]: the “Inhibitory effect relative to BzlαTFD, IgM mediated interaction” value (“Inhibitory effect relative to BzlαTFD” below) in assay [1] (HT29) worked out at 4 times. The IC50 in assay [1] (setting [4]) is 8 mM; in assay [1] (setting [5]), 8 mM; in assay [2] (setting [6]) it was 20 mM; in assay [2] (setting [7]), over 20 mM; in assay [3] (setting [8]), 5 mM; in assay [3] (setting [9]) it was 1 mM. In addition, the “Inhibitory effect in the interaction of TFD-BSA/antigen T-IgG/IgM antibodies” value in assay [3] is “significant inhibition”.

Consider `CC(=O)NC1C(OCc2ccccc2)OC(CO)C(O)C1OC1OC(CO)C(O)C(O)C1O` (centres unmarked) [BzlαTFD], for which, in assay [1] (HT29), the “Inhibitory effect, IgM mediated interaction” value was “greatest inhibitors”. The IC50 is 4 mM in assay [1] (setting [4]); 2 mM in assay [1] (setting [5]); 10 mM in assay [2] (setting [6]); over 10 mM in assay [2] (setting [7]); 2.5 mM in assay [3] (setting [8]); 0.1 mM in assay [3] (setting [9]). Further, the “Inhibitory effect in the interaction of TFD-BSA/antigen T-IgG/IgM antibodies” value in assay [3] is listed as “significant inhibition”.

Regarding `CC(=O)NC1C(O)OC(CO)C(O)C1O` (centres unmarked) [GalNAc], the IC50 in assay [1] (setting [10]) was 20 mM; in assay [1] (setting [4]) it was over 100 mM; in assay [2] (setting [6]), over 100 mM; in assay [2] (setting [7]), over 100 mM; in assay [3] (setting [8]) it was 20 mM; in assay [3] (setting [9]), 30 mM. For the same compound, the “Inhibitory effect relative to BzlαTFD” value in assay [1] (HT29) is listed as 10 times.

In the case of `OCC1OC(O)C(O)C(O)C1O` (centres unmarked) [Gal], in assay [1] (HT29), the “Inhibitory effect, IgM mediated interaction” value is on record as “did not show inhibitory effect”.

As to `CC(=O)NC1C(O)OC(CO)C(O)C1O` (centres unmarked) [GlcNAc], the IC50 in assay [1] (setting [11]), in assay [1] (setting [10]), in assay [2] (setting [6]), in assay [2] (setting [7]), in assay [3] (setting [8]) and in assay [3] (setting [9]) was over 100 mM in each case. Also, in assay [1] (HT29), the “Inhibitory effect, IgM mediated interaction” value is “did not show inhibitory effect”. For the same compound, in assay [3], the “Inhibitory effect in the interaction of TFD-BSA/antigen T-IgG/IgM antibodies” value was “did not show any effect”.

In the case of `OCC1OC(O)C(O)C(O)C1O` (centres unmarked) [Glc], the IC50 in assay [1] (setting [4]), in assay [1] (setting [5]), in assay [2] (setting [6]), in assay [2] (setting [7]), in assay [3] (setting [8]) and in assay [3] (setting [9]) was over 100 mM in each case. For the same compound, the “Inhibitory effect in the interaction of TFD-BSA/antigen T-IgG/IgM antibodies” value in assay [3] is “did not show any effect”.

With `CC(=O)N[C@@H]1[C@@H](O[C@@H]2O[C@H](CO)[C@H](O)[C@H](O)[C@H]2O)[C@@H](O)[C@@H](CO)O[C@@H]1O` [TFD, Galβ3GalNAcα], the IC50 in assay [1] (setting [11]) was over 10 mM; in assay [1] (setting [10]), 8 mM; in assay [2] (setting [6]), 20 mM; in assay [2] (setting [7]) it was over 20 mM; in assay [3] (setting [8]) it was 10 mM; in assay [3] (setting [9]) it was 3.5 mM. For the same compound, in assay [1] (HT29), the “Inhibitory effect relative to BzlαTFD” value is 4 times. Further, the “Inhibitory effect in the interaction of TFD-BSA/antigen T-IgG/IgM antibodies” value in assay [3] is “significant inhibition”.

For the compound `CC(=O)N[C@H]1[C@@H](Oc2ccc([N+](=O)[O-])cc2)O[C@H](CO)[C@H](O)[C@@H]1O[C@@H]1O[C@H](CO)[C@H](O)[C@H](O)[C@H]1O` [pNPαTFD], the IC50 in assay [1] (setting [11]) was over 10 mM; in assay [1] (setting [10]) it was 2 mM. The “Inhibitory effect, IgM mediated interaction” value in assay [1] (HT29) is “greatest inhibitors”.

Values taken from US20100297159A1, “THOMSEN-FRIEDENREICH DISACCHARIDE MODIFIED IMMUNOGEN (TFD), PREPARATION PROCEDURE, COMPOSITIONS COMPRISING IT, USES, AND TREATMENT METHODS” (CONSEJO NACIONAL DE INVESTIGACIONES CIETIFICAS Y TECNICAS …, priority 2007, published 2010).
